Results: patent publication US20040019118A1, “NMDA receptor antagonists and their use in inhibiting abnormal hyperphosphorylation of microtubule associated protein tau” (priority 2002, published 2004)
“Also recorded” adds a separate entry of the source.

Tests used:
MAP2 = test: 125I-Western blots of MAP2 in slice homogenates; assay type: cell-based, rat
Description: Organotypic cultures of rat hippocampal slices were prepared from 20-30 day old Wistar rats and cultured with the interface method as described previously (Stoppini, et al. 1991; Bahr, et al. 1995; Zhongrin, et al. 2000). The rats were anesthetized with ketamine (100 mg/kg body weight) and decapitated and the hippocampi were dissected out and sliced into 400 um coronal sections by a McIllwain tissue chopper. Select slices with uninterrupted bright transparent neuronal layers were plated, 1-3 slices/filter, onto Millicell CM filters (Millipore, Bedford, Mass.). For the first 2 days in vitro (DIV) cultures were maintained in 25% horse serum, 50% Basal Media-Eagle (BEM), 25% Eagle's Balanced Salt Solution (EBSS), 25 mM HEPES, 1 mM glutamine, 28 mM glucose, pH 7.2, at 32° C. in a 5% CO2 humidified atmosphere. The slice cultures were then switched to 25% horse serum, 50% BEM and EBSS modified so that the potassium concentration was 2.66 mM, for another 5 DIV. […]
The phosphorylation of tau at Ser 262 and the levels of MAP2 and phosphorylated NF-H/M were assayed by ^125I-Western blots. […] Both immuno-dot-blots and Western blots were developed with ^125I-radiolabeled secondary antibodies and radioimmunoreactivity was visualized and quantitated using a phosphorimager (Fujifilm BAS-1500) and TINA 2.0 software (Raytest Isotopenmessgeräte GmbH)

PP-2A = biological target: T1, PP-2A (Rattus norvegicus, UniProt P63331); test: PP-2A activity after in vitro addition to 16,000xg extract of hippocampal slices; assay type: biochemical
T1 construct: from tissue; host or cells: organotypic culture of adult rat hippocampal slices; 16,000xg extract
T1 sequence (P63331 whole entry): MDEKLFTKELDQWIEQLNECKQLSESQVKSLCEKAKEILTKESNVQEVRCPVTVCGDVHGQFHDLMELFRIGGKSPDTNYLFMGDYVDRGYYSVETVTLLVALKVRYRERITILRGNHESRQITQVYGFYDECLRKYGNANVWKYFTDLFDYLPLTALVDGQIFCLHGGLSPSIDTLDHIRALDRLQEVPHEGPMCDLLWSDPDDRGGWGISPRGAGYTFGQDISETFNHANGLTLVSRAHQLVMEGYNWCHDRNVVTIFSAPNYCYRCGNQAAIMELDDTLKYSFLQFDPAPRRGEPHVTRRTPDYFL
Description: Activities of PP-2A and PP-1 were assayed towards [^32P] phosphorylase-a as a substrate as described previously (Gong, et al. 1994). The phosphatase activity was assayed in 20 μl of reaction mixture containing 50 mM Tris, pH 7.0, 10 mM BME, 0.1 mM EDTA, 7.5 mM caffeine, 7.5 ng/μl [^32P]phosphorylase-a and 0.06 mg/ml slice culture extract. The reaction was started by adding ^32P-phosphorylase-a. After incubation for 30 min at 30° C., 7 μl of the reaction mixture was spotted on to 31 ETCHR chromatography paper which had been prespotted with 10 μl stop solution (4 mM ATP+20% TCA). Then the ^32p released was separated from the protein-incorporated ^32P by paper chromatography in 5% TCA and 0.2 M NaCl, paper strips dried, cut and counted by Cerenkov radiation. A PP-1 specific inhibitor, inhibitor-1 (Hitken, et al. 1982) was included in the assays for PP-2A activity. PP-1 activity was calculated by subtracting the PP-2A activity from the total phosphorylase-a phosphatase activity (PP-1/PP-2A) assayed in the absence of inhibitor-1.
For this purpose we treated the hippocampal slices in culture either with 100 nM OA plus 10 μM Memantine or with OA alone for 24 h, followed by a wash and then treatment with or without Memantine for another 24 h.

PKA = PKA activity in extracts of treated hippocampal slice cultures; assay type: cell-based, rat
Description: Organotypic cultures of rat hippocampal slices were prepared from 20-30 day old Wistar rats and cultured with the interface method as described previously (Stoppini, et al. 1991; Bahr, et al. 1995; Zhongrin, et al. 2000). The rats were anesthetized with ketamine (100 mg/kg body weight) and decapitated and the hippocampi were dissected out and sliced into 400 um coronal sections by a McIllwain tissue chopper. Select slices with uninterrupted bright transparent neuronal layers were plated, 1-3 slices/filter, onto Millicell CM filters (Millipore, Bedford, Mass.). For the first 2 days in vitro (DIV) cultures were maintained in 25% horse serum, 50% Basal Media-Eagle (BEM), 25% Eagle's Balanced Salt Solution (EBSS), 25 mM HEPES, 1 mM glutamine, 28 mM glucose, pH 7.2, at 32° C. in a 5% CO2 humidified atmosphere. The slice cultures were then switched to 25% horse serum, 50% BEM and EBSS modified so that the potassium concentration was 2.66 mM, for another 5 DIV. After 7 DIV, the cultures were maintained in physiological potassium containing 5% horse serum medium at 35° C. for at least 20 days before any treatment was applied. When the slices were treated, the reagents were applied into the culture medium. At different time points, the slices collected with a brush were washed twice in homogenizing buffer (50 mM HEPES, pH 7.0, 10 mM β-merceptoethanol [BME], 1 mM EDTA, 1 mM EGTA, 0.1 mM phenylmethyl sulfonyl fluoride [PMSF], 2.0 mM benzamidine and 2.0 μg/ml each of aprotinin, leupeptin and pepstatin) and homogenized at 4° C. using a Teflon-glass homogenizer. The homogenate was then divided into two parts, one was centrifuged at 16000×g for 15 min and the supernatant was used to assay activities of PP-2A and PP-1. The rest of the homogenate was diluted 1:1 with a phosphatase inhibitor cocktail (20 mM β-glycerophosphate, 2 mM Na3VO4 and 100 mM NaF, pH 7.0) and either used for Western blots or centrifuged at 16000×g for 15 min and the resulting supernatant used to determine the kinase activities.
CaMKII activity was measured in 25 μl of buffer containing 50 mM HEPES, pH 7.5, 10 mM MgCl2, 2.0 mM CaCl2, 10 mM BME, 10 μg/ml calmodulin (CaM), 20 μM syntide (Sigma, St Louis Mo., USA), 0.06 mg/ml slice extract and 200 μM [γ^32P]ATP. The reaction was initiated by adding [γ32p] ATP. After incubation for 10 min at 30° C., 10 μl reaction mixture was removed and spotted on to phosphocellulose membrane. The membrane was then washed five times in 1% phosphoric acid to remove non-protein incorporated ^32P, dried and counted by Cerenkov radiation. The activity of PKA was determined as above except the reaction mixture contained 70 mM NaHPO4, pH 6.8, 14 mM MgCl2, 1.4 mM EDTA, 30 μM malantide (Sigma, St Louis, Mo., USA), 200 μM [γ^32p] ATP and 0.06 mg/ml slice extract.

Row | SMILES | MAP2 level (MAP2; OA then Memantine) | effect on PP-2A activity of extract of slices cultured with 100 nM OA for 24 h (PP-2A; Memantine 1-10 μM added to extract) | effect on PP-2A activity inhibited in extract with 100 nM OA (PP-2A; Memantine 1 to 60 μM added to extract) | restoration of OA-induced change in PKA activity (PKA; 100 nM OA, 10 μM Memantine, 24 h) | concentration (as low as) restoring OA-induced increase in PKA activity to normal level (PKA; 100 nM OA, p<0.05) | effect on PKA activity in control/untreated cultures (PKA; no OA) | MAP2 level (MAP2; OA-treated cultures) | inhibition at 0.1 µM (PP-2A; read-out: inhibition of PP-2A activity, 100 nM OA added to extract of untreated cultures) | increase in PKA activity (PKA; 100 nM OA, 24 h or 48 h) | change in PKA activity (PKA; OA-treated slice cultures)
1 | CC12CC3CC(C)(C1)CC(N)(C3)C2 [Memantine, 1-amino-3,5-dimethyl adamantane] | reversal to normal levels; also recorded: increased the levels of MAP2 | no significant effect; also recorded: failed to restore | no significant effect | restored the OA-induced changes in the activities of PP-2A, CaMKII and PKA to normal levels | 1 µM | no significant effect | – | – | – | –
2 | C=C1[C@@H](O)[C@@H]2O[C@]3(CC[C@H](/C=C/[C@@H](C)[C@@H]4CC(C)=C[C@@]5(O[C@H](C[C@@](C)(O)C(=O)O)CC[C@H]5O)O4)O3)CC[C@H]2O[C@@H]1[C@@H](O)C[C@H](C)[C@H]1O[C@@]2(CCCCO2)CC[C@H]1C [OA, Okadaic Acid] | – | – | – | – | – | – | a decrease in MAP2 | 90% | ~20% | no significant changes; also recorded: no significant alteration
